The experiment relates to gPSCs. Nature of the experiment: Upstream/downstream ROCK pathway inhibitors used in the culture conditions in place of a ROCK inhibitor. The experiment is classed as cell-based. The source says:
As used herein, inhibiting ROCK can mean to reduce the activity, function or expression of at least one of ROCK1 or ROCK2. […] In general, ROCK phosphorylates LIM kinase and myosin light chain (MLC) phosphatase after being activated through binding of GTP-bound Rho. One embodiment of the present invention thus involves blocking the upstream pathway of ROCK1 and/or ROCK2, for example GTP-bound Rho, such that ROCK1 and/or ROCK2 is not activated or its activity is reduced over untreated cells. Other upstream effectors include but are not limited to, integrins, growth factor receptors, including but not limited to, TGF-beta and EGFR, cadherins, G protein coupled receptors and the like. Another embodiment of the present invention thus involves blocking the activity, function or expression of downstream effector molecules of activated ROCK1 and/or ROCK2 such that ROCK1 and/or ROCK2 cannot propagate any signal or can only propagate a reduced signal over untreated cells. Downstream effectors include but are not limited to, Myosin phosphatase-targeting protein (MYPT), vimentin, LIMK, Myosin light chain kinase, NHE1, cofilin, Myosin II and the like. […] Upstream or downstream inhibition of ROCK, in place of direct ROCK inhibition and in conjunction with the other culture conditions described and required herein, may or may not generate conditionally immortalized gPSCs.

The values below come from patent US20200283726A1, “PROCESS FOR CONTINUOUS CELL CULTURE OF GPSCS” (Georgetown University, priority 2017, published 2020).

With `Cc1ccc2c(c1)C(=O)C1(O)CCN(c3ccccc3)C1=N2` (centres unmarked) [blebbistatin], the “Effect on cells in culture” value was “allow the cells to bypass differentiation and allow proliferation in vitro”.
With C3 transferase, the “Effect on cells in culture” value is “allow the cells to bypass differentiation and allow proliferation in vitro”.
